Tests used:
Type in all cases: in vitro ADME
Caco-2 permeability = conditions: human; for Papp A→B at 90 min, 10 μM / Papp B→A at 90 min, 10 μM: pH 7.4, Caco-2, 10 μM; for Papp A→B at 90 min, 10 μM: apical-to-basolateral; for Papp B→A at 90 min, 10 μM: basolateral-to-apical
Method: Caco-2 cells were cultured in 75 cm2 flasks to 80-90% confluence in a humidified atmosphere at 37 °C and 5% CO2. Cells were detached with Trypsin/EDTA solution and resuspended in the complete medium containing DMEM high glucose (4500 mg/L) with L-glutamine (4 mM) supplemented with 10% […]
heat-inactivated Fetal Bovine Serum, 1% non-essential amino acids, and 730 nM puromycin and seeded at a density 5 × 10^5 cells in 75 cm2 flask. After 5 days, cells were trypsinized and resuspended in the complete medium to a final concentration of 600 × 10^3 cells/mL. 400 μL of the cell suspension was added to each well of the HTS 24-Multiwell Insert System and 25 mL of prewarmed complete medium was added to the feeder tray. Caco-2 cells were incubated in Multiwell Insert System for 6-10 days before the transport experiments. The medium in the filter plate and feeder tray was refreshed every other day. The 24-well insert plate was removed from its feeder plate and placed in a new sterile 24-well transport analysis plate. The inserts were washed with PBS after medium aspiration. Ketoprofen, atenolol, and digoxin were used as reference compounds.
To determine the rate of compounds transport in apical (A)-to-basolateral (B) direction, 300 μL of the test compound dissolved in transport buffer (Hanks’ BSS (9.5 g/L) and NaHCO3 (0.35 g/L) with MgSO4 to final concentration 0.81 mM, CaCl2 to final concentration 1.26 mM, HEPES to final concentration 25 mM, pH adjusted to 7.4) was added into the filter wells; 1000 μL of transport buffer was added to transport analysis plate wells. To determine transport rates in the basolateral (B)-to-apical (A) direction, 1000 μL of the test compound solutions was added into the wells of the transport analysis plate, the wells in the filter plate were filled with 300 μL of buffer. The final amount of reference and test compounds was 10 μM. The plates were incubated for 90 min at 37 °C under continuous shaking at 100 rpm. 75 μL aliquots were taken from the donor and receiver compartments for LC-MS/MS analysis. All samples were mixed with 2 volumes of acetonitrile followed by protein sedimentation by centrifuging at 10000 rpm for 10 min. Supernatants were analyzed using the HPLC system coupled with a tandem mass spectrometer. […]
The GIT model was simulated using the GIT-0 phospholipid mix.
(§1) Verapamil, quinidine (high permeability), and ranitidine (low permeability) were used as reference […]
All compounds were tested in triplicate. Prisma HT buffer (pH 7.4) containing 50 μM test compounds (0.5% DMSO) was added to the Donor Plate wells. Acceptor Sink Buffer was added to each well of the Acceptor Plate. Incubation was done at room temperature for 4 hours without stirring. After

[1] = Metabolic stability in human liver microsomes; conditions: for half-life at 2 μM / k el at 2 μM / microsomal CLint at 2 μM: pH 7.4, human liver microsomes, 40 min
Method: Metabolic stability in human liver microsomes
Microsomal incubations were carried out in 96-well plates in 5 aliquots of 30 μL each (one for each time point). Liver microsomal incubation medium comprised of phosphate buffer (100 mM, pH 7.4), MgCl2 (3.3 mM), NADPН (3 mM), glucose-6-phosphate (5.3 mM), glucose-6-phosphate dehydrogenase (0.67 units/ml) with 0.42 mg of liver microsomal protein per mL. In the control reactions, the NADPH-cofactor system was substituted with phosphate buffer. Test compounds (2 μM, final acetonitrile concentration 1.6 %) were incubated with microsomes at 37 °C, shaking at 100 rpm. Five time points over 40 min were analyzed. The reactions were stopped by adding 4 volumes of acetonitrile with internal standard to incubation aliquots, followed by protein sedimentation by centrifuging at 5500 rpm for 5 min. Each reaction was performed in duplicates. Supernatants were analyzed using the HPLC system coupled with a tandem mass spectrometer. […]

[2] = Gastrointestinal tract parallel artificial membrane permeability (PAMPA) assay; conditions: GIT PAMPA; for Permeability, Log10 [cm/s]: pH 7.4, 50 μM, 4 hours; for Papp at 4 h, 50 μM: pH 7.4, read-out: Pe
Method: Gastrointestinal tract parallel artificial membrane permeability (PAMPA) assay All steps of the PAMPA were carried out according to the pION Inc. PAMPA Explorer™ Manual. The main principle of the assay is the incubation of the compound in the donor chamber (a well in the Donor Plate) with an aqueous buffer, which is separated from the acceptor chamber (a well in the Acceptor Plate) with another buffer by a phospholipid or hydrocarbon membrane fixed on a filter support. After the test, concentrations in the corresponding donor and acceptor wells are measured, and permeability is calculated. The GIT model was simulated using the GIT-0 phospholipid mix.
as §1
All compounds were tested in triplicate. Prisma HT buffer (pH 7.4) containing 50 μM test compounds (0.5% DMSO) was added to the Donor Plate wells. Acceptor Sink Buffer was added to each well of the Acceptor Plate. Incubation was done at room temperature for 4 hours without stirring. After […]
incubation, aliquots from both plates were transferred to optic UV-Vis plates, and optic plates were read on a microplate reader in absorbance mode in the range of 230-550 nm with a 4 nm step. Then, the apparent permeability coefficient was calculated. […]
In order to define non-specific loss of the compound during this assay, standard solution was created by mixing an aliquot of spiked plasma with blank buffer without dialysis. Two aliquots of the standard solution were incubated with shaking (250 rpm) at 37 °C, 5% CO2, and a saturating humidity (~95%) for 5 h (recovery samples). The other two aliquots were immediately diluted with acetonitrile and stored at 4 °C until LC-MS/MS analysis (stability samples). All samples were diluted 5-fold with 90% acetonitrile with internal standard with subsequent plasma proteins sedimentation by centrifuging at 6000 rpm for 5 min. Supernatants were analyzed using HPLC system coupled with tandem mass spectrometer. Verapamil was used as a reference compound to control proper assay […]
Bortezomib and its analogs are known to exist as the free boronic acid as well as dimeric and trimeric boronic anhydrides. These forms interconvert rapidly in solution and are indistinguishable by routine […]
activity of such compounds. On UHPLC, the interconverting boronic species were not chromatographically resolved; however, diastereomers were at least partially separated, yielding two distinct chromatographic signals with identical mass spectra. By contrast, the bortezomib reference standard produced a single chromatographic signal, consistent with its pure enantiomeric form (see

Papp A→B at 90 min, 10 μM (Caco-2 permeability) | Papp B→A at 90 min, 10 μM (Caco-2 permeability) | half-life at 2 μM [1] | k el at 2 μM [1] | microsomal CLint at 2 μM [1] | Pe [2] | Permeability, Log10 [cm/s] [2] | Papp at 4 h, 50 μM [2] | efflux ratio at 90 min, 10 μM (Caco-2 permeability; Caco-2, pH 7.4, quotient of Papp(BA) to Papp(AB)) | microsomal stability ([1]; compared with bortezomib) | Structure (SMILES)
2.8 ± 0.1 ×10⁻⁶ cm/s | 20.7 ± 0.1 ×10⁻⁶ cm/s | 34.5 min | 0.000333 s⁻¹ | 48 µL/min/mg | 15.8 ×10⁻⁶ cm/s | -4.8 ± 0.02 Log10 [cm/s] | 15.8 ×10⁻⁶ cm/s | – | – | CC(C)C[C@H](NC(=O)[C@H](Cc1ccccc1)NC(=O)c1cnccn1)B(O)O [bortezomib, reference compound]
2 ± 0.2 ×10⁻⁶ cm/s | 17.1 ± 1 ×10⁻⁶ cm/s | 39.4 min | 0.0003 s⁻¹ | 42 µL/min/mg | 15.8 ×10⁻⁶ cm/s | -4.8 ± 0.06 Log10 [cm/s] | 15.8 ×10⁻⁶ cm/s | 8.4 | higher microsomal stability | O=C(N[C@@H](Cc1ccccc1)C(=O)N[C@H](B(O)O)C1CCCC1)c1cnccn1 [5l, ((R)-Cyclopentyl((S)-3-phenyl-2-(pyrazine-2-carboxamido)propanamido)methyl)boronic Acid]
